# Results taken from PMC3518498 (Oncoimmunology, 2012).
# Target: T1, HLA-A2 (A*0201) (Homo sapiens, UniProt P04439, D140Y/D185E/D98H/E176V/E277Q/G131W/G231S/I119V/I121R/I166T/I218V/L300P/L318F/N151K/N90K/P208A/P217A/Q86G/Q94H/R138H/R169H/T345S)
# Assay: iTopia initial binding assay
# Conditions: Table 1
row,Sequence,"Initial binding, % pos control [% pos control]"
1,ALVGILLVVV [H.657(10).L2],13.8
2,ALVGIMIGV [C.687.L2],73.7
3,FLHWLMSVYV [T.544],48.0
4,RLTVTTITV [C.310.L2],61.2
5,VVLGVVFGV [H.665.V9],65.8
6,YLSGANLNV [C.605.V9],73.2

# Second part, the sequence after the results:
row,"Initial binding, % pos control [% pos control]",Sequence
1,72.3,ALCRWGLLV [H.5.V9]
2,20.6,AVVGILLVV [H.657]
3,69.5,FLDLQVNSL [T.986]
4,88.4,FLVDDFLLV [T.865.F1]
5,99.8,ILAKFLHWLV [T.540(10).V10]
6,79.7,KLFGSLAFL
7,80.2,LLDTRTLEV [T.934]

# Tested on: HLA-A2 transgenic (HHD) mice
# Assay: Peptide immunization of HHD mice, IFNγ intracellular staining of splenocytes
# Format: in vivo, mouse
# Conditions: HHD mice immunized with the native peptide; Table 1
row,Sequence,"Corresponding native peptide: CMIR, % CD8+IFNγ+ cells [% CD8+IFNγ+ cells]"
1,ILAKFLHWLM [T.540(10)],0.06

# Same assay, conditions: HHD mice immunized with the native peptide; responder > 0.1%; Table 1
row,Sequence,Corresponding native peptide: Fraction of responders
1,ILAKFLHWLM [T.540(10)],1/5

# Same assay, conditions: HHD mice, group average; splenocytes stimulated with native peptide
row,Sequence,Average % CD8+IFNγ+ cells [% CD8+IFNγ+ cells]
1,FLVDDFLLV [T.865.F1],> 0.1
2,ILAKFLHWLV [T.540(10).V10],> 0.1

# Same assay, conditions: HHD mice, individual animals
row,Sequence,"Range of individual mouse responses, % CD8+IFNγ+ cells"
1,RLTVTTITV [C.310.L2],3.0–14.3%

# Same assay, conditions: analog vs. native peptide immunization, HHD mice
row,Sequence,Fold higher native peptide-specific T-cell response with analog [fold]
1,FLVDDFLLV [T.865.F1],1.9

# Target: T1, HLA-A2 (A*0201)
# Assay: iTopia stability
# Conditions: Table 1
Sequence,"Binding after 8 h incubation w/o free peptide, % pos control [% pos control]",MHC complex stability (T1/2) [h]
ALVGILLVVV [H.657(10).L2],17.8,
ALVGIMIGV [C.687.L2],76.2,26.3
FLHWLMSVYV [T.544],74.4,40.0
RLTVTTITV [C.310.L2],64.4,25.4
VVLGVVFGV [H.665.V9],72.7,40.0
YLSGANLNV [C.605.V9],78.5,27.4

# The next lines start with the values.
"Binding after 8 h incubation w/o free peptide, % pos control [% pos control]",MHC complex stability (T1/2) [h],Sequence
33.9,6.2,ALCRWGLLV [H.5.V9]
12.0,8.6,AVVGILLVV [H.657]
54.5,7.8,FLDLQVNSL [T.986]
76.2,13.2,FLVDDFLLV [T.865.F1]
88.8,16.8,ILAKFLHWLV [T.540(10).V10]
114.9,40.0,KLFGSLAFL
66.3,21.6,LLDTRTLEV [T.934]
